The values that follow are results of earlier work, collected in patent EP4691467A1, “USE OF INHIBITOR SPECIFICALLY TARGETING NLRP3 INFLAMMASOME” (Sichuan Jianlin Pharmaceutical Co., Ltd, priority 2023, dated 2024).

Data set [1] concerns CAPS mouse model.
Data set [2] deals with IL-18. Particulars: Muckle Wells syndrome.
Data set [3] concerns IL-1β.
Data set [4] relates to experimental autoimmune encephalomyelitis (EAE). Particulars: in vivo.
The conditions of data set [5]: phase II clinical trials, rheumatoid arthritis; trials suspended.
Data set [6] has as its system ASC specks. The note with it: cells pre-treated with MCC950, pro-inflammatory conditions.

For `CC(C)(O)c1coc(S(=O)(=O)NC(=O)Nc2c3c(cc4c2CCC4)CCC3)c1` [MCC950], the “lethality of newborn mice” value in data set [1] is “reduce”. The extension of lifespan in data set [1] (newborn mice) was approximately 20 days. Besides, the “release of IL-18 in plasma” value in data set [2] was “shows efficacy in inhibiting”. Moreover, the “production of IL-1β in vivo” value in data set [3] is recorded as “reduce”. Further, in data set [4], the “severity of disease models of multiple sclerosis (EAE)” value was “attenuate”. For the same compound, the hepatotoxicity result in data set [5] is reported as “excessive hepatotoxicity”. Besides, in data set [6], the “formation of ASC specks” value is on record as “inhibit”.
